Here are results for two compounds from paper PMC8880991 (eLife, 2022).

Experiment [1] relates to isolated pancreatic islets of ^EndomKir6.2^V108E mice. Briefly: Static incubation assay of GSIS with diazoxide. The format is cell-based, mouse. To be noted: 100 µM diazoxide; for Amount of insulin (secreted/total), Mean: 0 µM SpTx1, mean of 6 mice. As for the experimental part: (§1) Pancreatic islets were isolated as previously described ([Doliba et al., 2017]; [Li et al., 2009]). For each experiment, one to four adult mice (8–12 weeks of age) were euthanized by exposing them to an overdose of isoflurane through inhalation and a subsequent cervical dislocation. Following a perfusion through the common bile duct with a Hank’s balanced salt solution (HBSS; GIBCO, 14175) containing collagenase XI (1–2 mg/ml, Millipore-Sigma, C7657) and 1 mM CaCl2, the pancreas was dissected and digested at 37°C for 5 or 15 min. After the digestion, the collagenase in the pancreas homogenate was removed through several washes with HBSS containing 0.3% (wt/vol) bovine serum albumin, and dissociated islets were then hand-picked into a recovery media RPMI1640 (GIBCO, 21870) with the following supplements: 10% fetal bovine serum, 2 mM GlutaMAX, 1 mM sodium pyruvate, penicillin–streptomycin, and 10 mM HEPES titrated to pH 7.4 with NaOH. For the perifusion assay, the digested pancreases samples were subject to a Ficoll gradient purification, and the islets in the enriched fraction were washed with the recovery solution before handpicking islets. During this process, the samples from four mice were pooled to ensure a sufficient number of islets were used to perform assays under compared conditions with the same population in each independent round of experiment. The handpicked islets were placed in 5% CO2 incubator at 37°C to rest overnight prior to the static incubation assay or 2 days prior to the perifusion assay.
For insulin secretion in each independent static incubation assays, pancreatic islets from one mouse (8–12 weeks of age) were used as follows. […] Washed islets were equilibrated in the final wash step for 1 hr at 5% CO2 and 37°C. Using a previous study as reference ([Remedi et al., 2009]) and on the basis of the amount of insulin secretion and the sensitivity of insulin assay, we chose to use 5–10 islets in each assay. […]

The test system of another experiment is wild-type mice. Briefly: Blood glucose monitoring of overnight-fasted mice. The format is in vivo, mouse. Conditions: glibenclamide 40 mg/kg body weight, single intraperitoneal application; end of 2-hr observation period. As to the method: We evaluated the blood glucose levels of tested mice (8–12 weeks of age) using a digital glucometer (Clarity Diagnostics, BG1000). Induced diabetic mice were tested daily starting from the day after the final administration of tamoxifen until their blood glucose levels reached above 600 mg/dl. Following overnight (16 hr) fasting, blood glucose monitoring and plasma collection were then performed using specified mouse lines at designated time points over a 2-hr observation period in the next morning. […] At each given time point, the glucose level of a blood drop obtained from the cut tail tip was measured twice using a glucometer. For any case where the level was above 600 mg/dl, the blood sample was diluted by an equal volume of the phosphate-buffer solution titrated to pH 7.3 before the glucose level was remeasured for two times. Additionally, four to five drops (~12 μl) of tail vein blood were collected at individual specified time points into a tube containing K2EDTA (1.5 mg/ml blood) and centrifuged at 2000 × g for 5 min at 4°C. 5 μl of the resulting plasma was frozen in liquid nitrogen, stored at −20°C, and assayed using a colorimetric insulin-detecting ELISA kit (CrystalChem, 90080) within a week. Mice were grouped according to genotypes. Using a previous study as reference ([Remedi et al., 2009]), we determined the number of mice for individual groups. […]

In experiment [2] the test system is β cells in isolated pancreatic islets from ^EndomKir6.2^V108E mice. Briefly: Membrane potential (Vm), perforated whole-cell patch clamp. The format is cell-based, mouse. Conditions: glibenclamide; nominal glucose-free condition. As to the method:
(§2) Electrophysiological membrane potential (Vm) measurements from individual cells in isolated but intact islets cultured on glass coverslips were performed using the perforated whole-cell patch-clamp method as described ([Yang et al., 2021]). Wax-coated electrodes (G85150T, Warner) were back filled with the intracellular solution containing (in mM): 76 K2SO4, 10 KCl, 10 NaCl, 6 MgCl2, 30 mannitol, 30 HEPES, where pH was titrated to 7.2 at 35°C with N-methyl-d-glucamine (NMG). The tip of the pipette was filled with this solution and the remainder was back filled with the same solution plus β-escin (6 or 8 µM). The free Mg^2+ concentration of this solution, taking the divalent cation-chelating action of SO4^2− into consideration, is estimated to be about 2 mM. The extracellular solution contained (in mM): 135 NaCl, 4 KCl, 2 CaCl2, 2 MgCl2, 10 HEPES, where pH was titrated to 7.4 at 35°C with NMG. Glucose was added to this solution as required and the osmolarity was adjusted to ~300 mOsm with mannitol. All salts were from Millipore-Sigma. Using the solutions described above, the initial input resistance of the electrode was typically 4–8 MΩ. The electrophysiological recordings were performed under a continuous perfusion condition, 0.3–0.4 ml/min (Instech), at ~35°C (TC-124A and TC-344B Warner). Islets were equilibrated in the recording chamber for 10–15 min before measurements were made. Adequate whole-cell access was achieved typically within 5–10 min.
(§3) The output of the patch-clamp amplifier (Axopatch 200B, Molecular Devices) was digitized at 2 kHz and stored for later analysis using Igor Pro (v8 or v9, Wavemetrics). The liquid junction potential has been subtracted from the results. To estimate the average Vm values under different conditions, the Vm traces were digitally Gaussian filtered at 0.1 Hz and the filtered data points in the last 50 s of a segment of interest were averaged. The filtered traces are superimposed on the illustrative original traces in the figures where appropriate. The variations in data values reflected both biological variability and technical errors (Figures 2D–F–6D–F). No data, which were successfully recorded over sufficient durations that allowed for adequate examination the membrane potential under the various specified conditions, were excluded.

Experiment [3] has as its system β cells in isolated pancreatic islets from wild-type mice. The description is as above. The format is cell-based, mouse. As to the method:
as §2, §3

Experiment [4] has as its system isolated pancreatic islets of ^EndomKir6.2^V108E mice. The class given is cell-based, mouse. As to the method:
as §1
For each perifusion experiment ([Doliba et al., 2017]), pancreatic islets from four mice (8–12 weeks of age) were used in the following manner. […] At the end of each experiment, the islets were recovered and placed in acidified ethanol to extract total insulin content as described above. Insulin in the samples was assayed using an insulin-specific radioimmunoassay kit (RI-13K, Millipore). For each condition, the study was performed three to six times. […] No experiments were excluded.

Experiment [5] concerns ^Rosa26mKir6.2^NDM-V108E mice. The experiment can be described thus: Blood glucose monitoring of overnight-fasted diabetic mice. The class given is in vivo, mouse. Conditions: glibenclamide 40 mg/kg, single bolus. The text has this:
(§4) In ^Rosa26mKir6.2^NDM and ^Rosa26mKir6.2^NDM-V108E mice, the expression of mutant Kir6.2 activity occurred in the pancreas upon the excision of the Neo/WSS cassette by the tamoxifen-dependent Cre recombinase ([Remedi et al., 2009]). Exposure to tamoxifen permitted the translocation of Cre recombinase from the cytoplasm to the nucleus in order to perform the excision between loxP sites within the targeted Rosa26 locus. To induce the expression of mutant Kir6.2 activity and consequently the diabetic phenotype in these mutant mice (8–12 weeks of age), corn oil containing tamoxifen (75 mg/kg body weight; prepared as described below) was injected intraperitoneally for five consecutive days. Injection sites were sealed with a tissue adhesive (3M Vetbond) to prevent leakage of the injected liquid.
(§5) We evaluated the blood glucose levels of tested mice (8–12 weeks of age) using a digital glucometer (Clarity Diagnostics, BG1000). Induced diabetic mice were tested daily starting from the day after the final administration of tamoxifen until their blood glucose levels reached above 600 mg/dl. […] At each given time point, the glucose level of a blood drop obtained from the cut tail tip was measured twice using a glucometer. […]

Experiment [6] has as its system ^Rosa26mKir6.2^NDM-V108E mice. Briefly: Plasma insulin assay (ELISA). The format is in vivo, mouse. To be noted: glibenclamide 40 mg/kg, single bolus.
Source text: as §4, §5
For orientation: In an ELISA, binding on a coated surface is turned into a signal by an enzyme label.

SMILES strings stand for the structures. “Also recorded” adds a separate entry of the source. Like-named read-outs stand apart in the source and are kept apart here.

Consider `CC1=NS(=O)(=O)c2cc(Cl)ccc2N1` [diazoxide], for which, in experiment [1] (16.7 mM glucose), the “effect on insulin secretion” value was “lowered the insulin secretion in 16.7 mM glucose to the baseline level” and the “Amount of insulin (secreted/total), Mean” value is given as 0.2327. Further, the “Amount of insulin (secreted/total), Mean” value in experiment [1] (3 mM glucose) was 0.2568.
On to `COc1ccc(Cl)cc1C(=O)NCCc1ccc(S(=O)(=O)NC(=O)NC2CCCCC2)cc1` [glibenclamide], for which the “effect on blood glucose level” value in the experiment on wild-type mice was “lowered the blood glucose level of wild-type mice by half”. Besides, the “effect on Vm” value in experiment [2] was “elicited action potentials”; in experiment [3] (glibenclamide 0.4 µM, glucose 0 mM), “dramatically depolarized Vm and triggered a train of action potentials”. Further, the Vm in experiment [3] (0.2 uM Glibenclamide in 5 mM Glucose, islet 1) is -0.05335 V; in experiment [3] (0.2 uM Glibenclamide in 5 mM Glucose, islet 2), -0.03306 V; in experiment [3] (0.2 uM Glibenclamide in 5 mM Glucose, islet 3), -0.0403 V; in experiment [3] (0.4 uM Glibenclamide in 0 mM Glucose, islet 1) it was -0.05043 V; in experiment [3] (0.4 uM Glibenclamide in 0 mM Glucose, islet 2) it was -0.02061 V; in experiment [3] (0.4 uM Glibenclamide in 0 mM Glucose, islet 3), -0.04501 V. Also, the Vm in experiment [3] (0.4 uM Glibenclamide in 0 mM Glucose, islet 4) was -0.03684 V; in experiment [3] (0.4 uM Glibenclamide in 0 mM Glucose, islet 5), -0.05294 V; in experiment [3] (0.4 uM Glibenclamide in 0 mM Glucose, islet 6) it was -0.05777 V; in experiment [3] (0.4 uM Glibenclamide in 8 mM Glucose, islet 1) it was -0.04669 V; in experiment [3] (0.4 uM Glibenclamide in 8 mM Glucose, islet 2) it was -0.04799 V; in experiment [3] (0.4 uM Glibenclamide in 8 mM Glucose, islet 3) it was -0.04272 V. Further, the Vm in experiment [3] (0.4 uM Glibenclamide in 8 mM Glucose, islet 5) is reported as -0.05311 V; in experiment [3] (0.4 uM Glibenclamide in 8 mM Glucose, islet 6), -0.0321 V. Further, the “insulin secretion after removal of inhibitor and return to 3 mM glucose” value in experiment [4] (1 μM glibenclamide) is given as “the elevated insulin secretion largely persisted”. In addition, the “effect on insulin secretion” value in experiment [4] (1 μM glibenclamide with glucose raised from 3 to 10 mM) is “yielded insulin secretion much greater than that from elevated glucose alone”; in experiment [4] (1 μM glibenclamide, 16.7 mM glucose), “caused much greater secretion of insulin than it did in the absence of glibenclamide”. In experiment [4] (1 μM glibenclamide, 3 mM glucose, added 10 min before raising glucose), the “insulin secretion in nonstimulating glucose (primary secretagogue)” value is on record as “triggered sizable secretion of insulin; also recorded: stimulated sizable secretion of insulin”. In addition, the “effect on elevated blood glucose level” value in experiment [5] is on record as “neither markedly lowered the elevated blood glucose level”. Moreover, the “effect on plasma insulin” value in experiment [6] is given as “nor caused a rise of insulin in the plasma”.
